Source: patent publication US8858952B2, “Methods and materials for generating T cells” (Mayo Foundation for Medical Education and Research, priority 2009, dated 2014)
Where no end group is shown, it is not given here. [ ]: non-standard residue; d: D form. Ava = NCCCCC(=O)O

Tested on: FR74-specific T cells
Test: IFN-γ ELIspot of T cell cultures generated ex vivo with polypeptide-pulsed DC
Format: cell-based, FVB/N mice
Method: FIG. 4 is a graph plotting the results an IFN-γ ELIspot analyses of T cell cultures incubated with the indicated polypeptides. Epitope nesting greatly augments the numbers of antigen-specific T cells. T cells were tested in ELIspot against native FR74 polypeptide at various concentrations. Each data point is the mean of 3 determinations.
FIG. 6. FR74-specific T cells generated with modified polypeptides recognized tumor lysates. […] Each bar is the mean (±s.e.m.) of 3 replicates.
FIG. 7. […] The T cells were generated at varying concentrations of polypeptides (x-axis). Each point is the mean (±s.e.m.) of 3 replicates.
In terms of proliferation, only the dual modified polypeptide was able to generate T cells that were able to proliferate at 10^−9 g/mL (FIG. 5).
In order to determine whether furin cleavage is required, two methods are used: furin insensitive linkers and furin inhibitors. Blockade of enhanced ex vivo expansion mediated by the DC3 peptide using these two methods is powerful evidence, outside of a furin knockout mouse, that furin is required for the actions of DC3. Although it has already been shown that DC3 must be linked to antigen, as a control T cells are expanded using free FR74 mixed with free DC3. To test the role of furin with furin-insensitive linkers, RARR (SEQ ID NO:4) is replaced with VRVV (SEQ ID NO:41) with the polypeptides FR74.1, FR74.3, and FR74.8 as shown in FIG. 17. In parallel with these cultures, cultures are included in which inhibitors are included. The stoichiometric peptidyl inhibitor decanoyl-Arg-Val-Lys-Arg-CH2CL (SEQ ID NO:42) and α1-antitrypsin Portland, which are the two most commonly used inhibitors, are employed. […] Cultures are examined over a range of concentrations of inhibitors and assayed as described with ELIspot and proliferation assays. To generate Th cells, CD4^+ T cells are purified by incubation of splenocytes with anti-CD4^+ MACS microbeads (Miltenyi, Auburn, Calif.) for 20 minutes at 4° C., followed by positive selection of CD4^+ T cells using an AutoMACS automatic magnetic cell sorter according to the manufacturer's specifications. Th cell lines are established with bone marrow derived DC at a concentration of 5×10^4 T cells/mL in 24-well tissue culture-treated plates in complete medium on day 0. To derive the dendritic cells (DCs), bone marrow is harvested from the long bones of FVB/N mice and seeded in 6-well plates (3×10^6/well) in complete media with murine GM-CSF (10 ng/mL) and IL-4 (1 ng/mL). Media and cytokines are replaced after 3 days. On day 5, CPG is added to the cultures at 1 μg/mL, and the cells are ready for T cell induction on day 6. The tissue culture-generated DC are pulsed with 10 μg/mL FR74 peptide or its modifications and 10 μg/mL B7DC-crosslinking antibody at 37° C. for 4 hours. In these experiments, constant mass is maintained. Next, the peptide-loaded DC are washed with media, and the CD4+ T cells are added, and on days 8 and 10, IL-2 (50 U/mL) is added. On day 15, cells are assayed. For the ELIspot analysis, anti-IFN-γ (Pharmingen) antibody is added to a 96-well nitrocellulose-backed plate (NC-plate, Millipore) at 50 μL/well at a concentration of 10 μg/mL in PBS and incubated overnight at 4° C. The day of analysis, the NC-plate is washed with PBS and blocked for 1-2 hours at 37° C. with PBS/2%BSA. After blocking, the plate are again washed. The Th cells are transferred to the antibody-coated plates. Syngeneic naïve CD4 T cells alone without peptide antigen are used as the negative control. Th cells are seeded at 5×10^4 cells/well with a range of native (i.e., FR74) peptide, irrelevant peptide, FRαMMC tumor lysate, irrelevant tumor lysate, media or concanavalin A. Irradiated syngeneic splenocytes are added at 1 ×10^5 cells/well as antigen-presenting cells. The plate is incubated at 37° C. for 24 hours. The plate are washed with PBS/0.05% Tween-20, and 100 μL/well biotinylated anti-IFN-γ(5 μg/mL, Pharmingen) antibody are added to each well. […]

FR74.4: dual conjugated polypeptide: FR74 nested between Ii-key and DC3 (Ac-LRMK[Ava]KDISYLYRFNWNHCGRARRFYPSYHSTPQRP)
response of generated T cells to naturally processed antigen (DC pulsed with FRα-expressing tumor cells, FIG. 6): retain the capability to respond to naturally processed antigen
lowest peptide concentration at which generated T cells respond (IFN-γ ELIspot against native FR74, FIG. 4): 10^−9 g/mL
ex vivo generation of FR74-specific T cells under equal molar amounts (equal molarity, FIG. 7): superior ex vivo generation of FR74-specific T cells relative to the native polypeptide
generation of FR74-specific T cells (within 12 days of culture, compared to controls, equal masses, FIG. 4): T cell reactivity greater than either modification alone
